# Test results: patent US10314920B2, “Therapeutic dendrimers” (ASTRAZENECA AB, priority 2017, dated 2019)
# Several values for one entry are separate records, joined by “and”; a condition that tells them apart may be missing. Identical values can stand only once. Entries after “also recorded” stand apart in the source; their conditions may differ.
# Key:
# OCI-Ly10 tumor cells = experiment: In vivo anti-tumor activity in human DLBCL model (OCI-Ly10); design: species or system mouse; conditions: single agent, 12.5 mg/kg twice a day oral
# Experimental: 5×10^6 OCI-Ly10 tumor cells were injected subcutaneously in the right flank of C.B.-17 SCID female mice in a volume of 0.1 mL containing 50% matrigel. Example 9 was formulated in citrate/phosphate buffer pH 5.0, diluted 1 to 10 with 5% glucose containing 1% w/v Kolliphor HS15, and dosed as a weekly intravenous (iv) administration at a volume of 5 mL/kg at a dose of 103 mg/kg (30 mg/kg API). Acalabrutinib was formulated in 0.5% hydroxypropyl methyl cellulose/0.2% Tween 80, and dosed twice a day (bid) as an oral (po) administration at a volume of 10 mL/kg at a dose of 12.5 mg/kg. Tumor volumes (measured by caliper), animal body weight, and tumor condition were recorded twice weekly for the duration of the study. The tumor volume was calculated using the formula:length (mm)×width (mm)^2×0.52. For efficacy studies, growth inhibition from the start of treatment was assessed by comparison of the differences in tumor volume between control and treated groups. Dosing began when mean tumor size reached approximately 166 mm3.
# NCI-H1048 tumor cells = experiment: In vivo anti-tumor activity in human small cell lung cancer tumor model (NCI-H1048); design: species or system mouse; conditions: 15 mg/kg daily (qd), oral
# Experimental: AZD2014 was formulated in 0.5% hydroxypropyl methylcellulose/0.1% Tween 80 and dosed oral in a volume of 10 ml/kg 5×10^6 NCI-H1048 tumor cells were injected subcutaneously in the right flank of C.B.-17 SCID female mice in a volume of 0.1 mL containing 50% matrigel. Tumor volume (measured by caliper) was calculated using the formula:length (mm)×width (mm)^2×0.52. For efficacy studies, mice were randomized based on tumor volume and growth inhibition was assessed by comparison of the differences in tumor volume between control and treated groups. Dosing began when mean tumor volume reached approximately 124 mm^3.
# [1] = Solubility of Compound A (Form B), shake flask method; assay type: physicochemical; conditions: thermodynamic from solid, crystalline Form B, room temperature 24 hours
# Experimental: The solubility of Compound A (Form B) was determined in water and propylene glycol. […] The solutions were centrifuged using ultra centrifuge for 30 min at 40,000 rpm, supernatant were transferred to a new centrifuge tube and centrifuged for another 30 min at 40,000 rpm. The propylene glycol supernatant was then assayed using a UV-HPLC method. The water supernatant was ultra-centrifuged for a third time before assay.
# [2] = Log D, octanol/water shake-flask; assay type: physicochemical; conditions: octanol / 10 mM sodium phosphate buffer pH 7.4
# Experimental: Lipophilicity (Log D) of Compound A was measured using octanol/water shake-flask principles. The aqueous solution used was a 10 mM sodium phosphate buffer with pH adjusted to 7.4. Octanol was used as the organic partitioning layer.
# [3] = Plasma protein binding, Equilibrium Dialysis RED device, mouse plasma; assay type: in vitro ADME; conditions: male, CD-1, pooled frozen plasma, 30 hours at 37° C., read-out: percentage unbound
# Experimental: (§1) Protein binding of Compound A (prepared as DMSO stock solutions and spiked into plasma at nominal incubation concentrations of 0.1, 1, 10 and 100 μmol/L) was evaluated in pooled frozen plasma obtained from male CD-1 mice, male Han Wistar rats, female New Zealand White rabbits, male Beagle dogs and male humans in triplicate using Equilibrium Dialysis RED device methodology (Waters N J et al., Validation of a Rapid Equilibrium Dialysis Approach for the Measurement of Plasma Protein Binding, Journal of Pharmaceutical Sciences; 2008; Volume 97; Issue 10; Pages 4586-4595, 2008). Incubations were conducted over an equilibration time of 30 hours at 37° C. Sample analysis was by HPLC-MS/MS and employed an [^13C, ^2H7] Compound A internal standard using the following bioanalytical method: […]
# [4] = Plasma protein binding, Equilibrium Dialysis RED device, rat plasma; assay type: in vitro ADME; conditions: male, Han Wistar, pooled frozen plasma, 30 hours at 37° C., read-out: percentage unbound
# Experimental: as §1
# [5] = Plasma protein binding, Equilibrium Dialysis RED device, rabbit plasma; assay type: in vitro ADME; conditions: female, New Zealand White, pooled frozen plasma, 30 hours at 37° C., read-out: percentage unbound
# Experimental: as §1
# [6] = Plasma protein binding, Equilibrium Dialysis RED device, dog plasma; assay type: in vitro ADME; conditions: male, Beagle, pooled frozen plasma, 30 hours at 37° C., read-out: percentage unbound
# Experimental: as §1
# [7] = Plasma protein binding, Equilibrium Dialysis RED device, human plasma; assay type: in vitro ADME; conditions: male, pooled frozen plasma, 30 hours at 37° C., read-out: percentage unbound
# Experimental: as §1
# [8] = system: RS4;11 Acute Lymphoblastic Leukemia Xenograft; experiment: Efficacy of Compound A (HP-β-CD) at different infusion length in RS4;11 xenograft model in rats; assay type: in vivo, rat; conditions: single IV 5 hr infusion, 30% HP-β-CD
# Experimental: Rag2−/− rats purchased from (SAGE) were inoculated with RS4;1 (10×10^6 cells/rat). When tumors grew to approximately […], rats were randomized to vehicle control (30% HP-β-CD) or Compound A 5 mg/kg in Vehicle 1) delivered as a single IV 30 min infusion (FIG. 6) and Vehicle control (30% HP-β-CD) or Compound A 5 mg/kg, 3 mg/kg and 1 mg/kg in Vehicle 1 delivered as a single IV 5 hr infusion (FIG. 7). The tumor sizes were measured twice a week and calculated as: Tumor Volume=(A×B^2)/2 where A and B are the tumor length and width (in mm), respectively.
# RS4;11 cells = experiment: Efficacy of dendrimers in RS4;11 xenograft model in mice; assay type: in vivo, mouse
# Experimental: 5×10^6 RS4;11 cells in a total volume of 100 μl were inoculated subcutaneously at the mouse right flank. When the tumor volume reached approximately ˜350 mm^3, tumor-bearing mice were randomized into groups of 4 animals and treated with either control Vehicle (PBS) or treatment.
# (§2) On specific day, for each treated group, calculate Inhibition value by formula: Inhibition %=(CG−TG)*100/(CG−1), in which “CG” means the geometric mean of rtv of the control group and “TG” means the Geometric Mean of Relative Tumor Volume (rtv) of the treated group. “CG” should use the corresponding control group of the treated group when calculated. If Inhibition >100%, then it's necessary to calculate the Regression by formula: Regression=1−TG
# [9] = Cardiovascular telemetry studies in the rat; conditions: Compound A 10 mg/kg, single 30-minute intravenous infusion
# Experimental: The telemetry transmitters were placed in the abdominal muscle and the arterial blood pressure catheter was placed in the abdominal aorta. The ECG electrodes were sutured to the dorsal surface of the xiphoid process and at the anterior mediastinum.
# Compound A was administered at dose levels of 0 and 10 mg/kg.
# Cardiovascular parameters were recorded continuously via receivers placed beneath the home cage for at least 1 hour pre-dose and up to 72 hours post-dose. Blood samples were taken to determine the level of plasma exposure of Compound A and all dendrimers, with clinical pathology and limited tissues for target organ histopathology taken from animals dosed with the macromolecule constructs only.
# SuDHL-4 xenograft = SuDHL-4 xenograft model in SCID mice, alone and with rituximab; assay type: in vivo, mouse
# Experimental: The SuDHL-4 xenograft model was used to test the ability of Examples 6 and 9 to enhance the activity of rituximab in inhibiting tumor growth. When tumors grew to approximately 175-250 mm^3, mice were randomized to the following groups:
# The tumor sizes were measured 2 times a week and calculated as: Tumor Volume=(A×B^2)/2 where A and B are the tumor length and width (in mm), respectively.
# Table 17 summarizes the tumor growth inhibition (TIC) and tumor growth delay (T-C) values calculated as % Inhibition & % Regression. The calculation is based on the geometric mean of RTV in each group.
# as §2
compound,measurement,setting,value
"CC#CC(=O)N1CCC[C@H]1c1nc(-c2ccc(C(=O)Nc3ccccn3)cc2)c2c(N)nccn12 [acalabrutinib, reference compound]",tumor growth inhibition (TGI),OCI-Ly10 tumor cells,~58%
"CNC(=O)c1cccc(-c2ccc3c(N4CCOC[C@@H]4C)nc(N4CCOC[C@@H]4C)nc3n2)c1 [AZD2014, vistusertib, reference compound]",TGI,NCI-H1048 tumor cells,84%
"CN(CCO)CC[C@H](CSc1ccccc1)Nc1ccc(S(=O)(=O)NC(=O)c2ccc(N3CCC([C@@H](O)c4ccccc4-c4ccc(Cl)cc4)CC3)cc2)cc1S(=O)(=O)C(F)(F)F [Compound A, 4-(4-((R)-(4′-chlorobiphenyl-2-yl)(hydroxy)methyl)piperidin-1-yl)-N-(4-((R)-4-((2-hydroxyethyl)(methyl)amino)-1-(phenylthio)butan-2-ylamino)-3-(trifluoromethylsulfonyl)phenylsulfonyl)benzamide]",solubility at 24 h,"[1]; organic solvent or mixture, propylene glycol",6120 µg/mL
same,solubility at 24 h,"[1]; water, final pH 8.7",< 1 µg/mL
same,logD,[2],> 3.5
same,"fraction unbound at 30 h, 100 μmol/L",[3],2.35e-05
same,"fraction unbound at 30 h, 100 μmol/L",[4],< 1e-05
same,"fraction unbound at 30 h, 100 μmol/L",[5],1.53e-05
same,"fraction unbound at 30 h, 100 μmol/L",[6],< 1e-05
same,"fraction unbound at 30 h, 100 μmol/L",[7],1.96e-05
same,efficacy when the infusion was prolonged,[8],Comparable efficacy
same,% Inhibition Day (47),RS4;11 cells; Compound A 5 mg/kg,>100%
same,% Regression Day(47),RS4;11 cells; Compound A 5 mg/kg,90%
same,regression,RS4;11 cells; Compound A HP-β-CD 10 mg/kg IV once,90%
same,Cardiovascular,[9],biphasic decrease in systolic and mean arterial blood pressure; also recorded: increases in heart rate; also recorded: decrease in QRS amplitude
same,In-life,[9],three rats were found dead and 3 found dead
rituximab [reference compound],T-C,SuDHL-4 xenograft; rituximab 10 mg/kg,>16 days
same,% Inhibition (TIC) Day (41),SuDHL-4 xenograft; rituximab 10 mg/kg i.p. once a week for 5 weeks,75.27%
